This note sets out measurements from patent publication US20240279215A1 (Cytokinetics, Incorporated, priority 2022, published 2024).

Structures are written as SMILES. pEC50: −log10 of the molar value.

Chain of human NAMPT (P43490 whole entry): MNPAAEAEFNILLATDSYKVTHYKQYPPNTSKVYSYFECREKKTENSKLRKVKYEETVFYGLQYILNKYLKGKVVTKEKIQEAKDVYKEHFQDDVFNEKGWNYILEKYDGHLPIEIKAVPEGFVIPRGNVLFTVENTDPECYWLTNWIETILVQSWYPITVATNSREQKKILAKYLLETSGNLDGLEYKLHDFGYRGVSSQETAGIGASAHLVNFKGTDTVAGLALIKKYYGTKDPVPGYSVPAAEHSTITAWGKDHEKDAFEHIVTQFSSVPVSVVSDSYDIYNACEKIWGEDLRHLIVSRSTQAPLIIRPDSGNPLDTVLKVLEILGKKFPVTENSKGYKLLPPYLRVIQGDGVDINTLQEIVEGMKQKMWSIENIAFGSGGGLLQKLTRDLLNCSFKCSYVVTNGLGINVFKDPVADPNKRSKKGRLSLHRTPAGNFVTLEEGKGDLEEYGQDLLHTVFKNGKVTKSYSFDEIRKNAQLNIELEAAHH

This assay deals with human NAMPT (Homo sapiens (Human), UniProt P43490). The experiment in a line: NMN fluorescence biochemical assay (human recombinant NAMPT enzyme assay). The method, boiled down:
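Activation of recombinant human NAMPT (6 nM) was tested with 2.5 mM ATP, 20 μM PRPP and 150 μM nicotinamide in 50 mM HEPES pH 7.2 for 60 min at ambient temperature. NMN was derivatized with acetophenone/KOH/formic acid and read by fluorescence (355/460 nm) after 40 min.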
Usually pEC50 stands for the negative decadic logarithm of the EC50, by convention in mol/L. For the compound `CC(C)C(=O)N1CC2(CC(Cc3ccc(NC(=O)OCc4cnco4)cc3F)C2)C1` [Compound 403, oxazol-5-ylmethyl (3-fluoro-4-((2-isobutyryl-2-azaspiro[3.3]heptan-6-yl)methyl)phenyl)carbamate], the “AC1.4 Human” value stood at 0.15 µM and the negative-log EC50 (pEC50) is 5.13.

Consider `CS(=O)(=O)N1CC2(CC(Cc3ccc(NC(=O)OCc4cnco4)cc3F)C2)C1` [Compound 404, oxazol-5-ylmethyl (3-fluoro-4-((2-(methylsulfonyl)-2-azaspiro[3.3]heptan-6-yl)methyl)phenyl)carbamate], for which the “AC1.4 Human” value turned out to be 0.10 µM and the negative-log EC50 (pEC50) was 4.84.

As for `CN(C)S(=O)(=O)N1C2CCC1CC(Cc1ccc(NC(=O)OCc3cnco3)cc1)C2` (stereo not shown) [Compound 405, oxazol-5-ylmethyl (4-((8-(N,N-dimethylsulfamoyl)-8-azabicyclo[3.2.1]octan-3-yl)methyl)phenyl)carbamate], the “AC1.4 Human” value came out at 0.11 µM and the negative logarithm of the EC50 (pEC50) is 5.47.

As for `CS(=O)(=O)N1C2CCC1CC(Cc1ccc(NC(=O)OCc3cnco3)cc1)C2` (stereo not shown) [Compound 406, oxazol-5-ylmethyl (4-((8-(methylsulfonyl)-8-azabicyclo[3.2.1]octan-3-yl)methyl)phenyl)carbamate], the “AC1.4 Human” value stood at 0.13 µM and the pEC50 was 5.22.

In the case of `COC(=O)N1C2CCC1CC(Cc1ccc(NC(=O)OCc3cnco3)cc1)C2` (stereo not shown) [Compound 407, methyl 3-(4-(((oxazol-5-ylmethoxy)carbonyl)amino)benzyl)-8-azabicyclo[3.2.1]octane-8-carboxylate], the “AC1.4 Human” value came to 0.26 µM and the negative-log EC50 (pEC50) is 5.07.

For `CN(C)C(=O)N1C2CCC1CC(Cc1ccc(NC(=O)OCc3cnco3)cc1)C2` (stereo not shown) [Compound 408, oxazol-5-ylmethyl (4-((8-(dimethylcarbamoyl)-8-azabicyclo[3.2.1]octan-3-yl)methyl)phenyl)carbamate], the “AC1.4 Human” value was 0.05 µM and the pEC50 was 5.46.

For the compound `CC(C)C(=O)N1C2CCC1CC(Cc1ccc(NC(=O)OCc3cnco3)cc1)C2` (stereo not shown) [Compound 409, oxazol-5-ylmethyl (4-((8-isobutyryl-8-azabicyclo[3.2.1]octan-3-yl)methyl)phenyl)carbamate], the “AC1.4 Human” value stood at 0.20 µM and the pEC50 was 4.57.

On to `CC(=O)N1C2CCC1CC(Cc1ccc(NC(=O)OCc3cnco3)cc1)C2` (stereo not shown) [Compound 410, oxazol-5-ylmethyl (4-((8-acetyl-8-azabicyclo[3.2.1]octan-3-yl)methyl)phenyl)carbamate], for which the “AC1.4 Human” value is 0.13 µM and the pEC50 was 5.38.

For the compound `CN(C)C(=O)N1CCC(c2ccc(NC(=O)OCc3cnco3)cc2F)CC1` [Compound 411, oxazol-5-ylmethyl (4-(1-(dimethylcarbamoyl)piperidin-4-yl)-3-fluorophenyl)carbamate], the “AC1.4 Human” value was found to be 0.04 µM and the pEC50 is 4.72.

Regarding `CCC(=O)N1CCC(c2ccc(NC(=O)OCc3cnco3)cc2F)CC1` [Compound 412, oxazol-5-ylmethyl (3-fluoro-4-(1-propionylpiperidin-4-yl)phenyl)carbamate], the “AC1.4 Human” value was 0.05 µM and the pEC50 was 4.32.

Take `CC(=O)N1CCC(c2ccc(NC(=O)OCc3cnco3)cc2F)CC1` [Compound 413, oxazol-5-ylmethyl (4-(1-acetylpiperidin-4-yl)-3-fluorophenyl)carbamate]: the “AC1.4 Human” value came to 0.10 µM and the pEC50 was 4.59.

For the compound `CC(C)C(=O)N1CCC(c2ccc(NC(=O)OCc3cnco3)cc2F)CC1` [Compound 414, oxazol-5-ylmethyl (3-fluoro-4-(1-isobutyrylpiperidin-4-yl)phenyl)carbamate], the “AC1.4 Human” value was 0.03 µM and the pEC50 is 4.58.

`CS(=O)(=O)N1CCC(c2ccc(NC(=O)OCc3cnco3)cc2F)CC1` [Compound 415, oxazol-5-ylmethyl (3-fluoro-4-(1-(methylsulfonyl)piperidin-4-yl)phenyl)carbamate]: the “AC1.4 Human” value stood at 0.18 µM and the pEC50 is 4.92.

As for `CN(C)S(=O)(=O)N1CCC(c2ccc(NC(=O)OCc3cnco3)cc2F)CC1` [Compound 416, oxazol-5-ylmethyl (4-(1-(N,N-dimethylsulfamoyl)piperidin-4-yl)-3-fluorophenyl)carbamate], the “AC1.4 Human” value is 0.07 µM and the pEC50 is 5.59.

On to `COC(=O)N1CCC(c2ccc(NC(=O)OCc3cnco3)cc2F)CC1` [Compound 417, methyl 4-(2-fluoro-4-(((oxazol-5-ylmethoxy)carbonyl)amino)phenyl)piperidine-1-carboxylate], for which the “AC1.4 Human” value came out at 0.18 µM and the pEC50 was 4.57.

Turning to `CCS(=O)(=O)N1CCC(Cc2ccc(NC(=O)OCc3cnco3)cc2)CC12CC2` (stereo not shown) [Compound 418, oxazol-5-ylmethyl (4-((4-(ethylsulfonyl)-4-azaspiro[2.5]octan-7-yl)methyl)phenyl)carbamate], the “AC1.4 Human” value turned out to be 0.18 µM and the negative logarithm of the EC50 (pEC50) is 5.22.

Take `CS(=O)(=O)N1CCC(Cc2ccc(NC(=O)OCc3cnco3)cc2)CC12CC2` (stereo not shown) [Compound 419, oxazol-5-ylmethyl (4-((4-(methylsulfonyl)-4-azaspiro[2.5]octan-7-yl)methyl)phenyl)carbamate]: the “AC1.4 Human” value amounted to 0.32 µM and the negative-log EC50 (pEC50) was 4.90.

Turning to `CS(=O)(=O)N1CC2CCC(C1)C2Cc1ccc(NC(=O)OCc2cnco2)cc1` (stereo not shown) [Compound 420, oxazol-5-ylmethyl (4-((3-(methylsulfonyl)-3-azabicyclo[3.2.1]octan-8-yl)methyl)phenyl)carbamate], the “AC1.4 Human” value was 0.12 µM and the pEC50 was 5.18.

In the case of `COC(=O)N1CC2CCC(C1)C2Cc1ccc(NC(=O)OCc2cnco2)cc1` (stereo not shown) [Compound 421, methyl 8-(4-(((oxazol-5-ylmethoxy)carbonyl)amino)benzyl)-3-azabicyclo[3.2.1]octane-3-carboxylate], the “AC1.4 Human” value stood at 0.13 µM and the negative-log EC50 (pEC50) is 5.63.

With `CN(C)C(=O)N1CC2CCC(C1)C2Cc1ccc(NC(=O)OCc2cnco2)cc1` (stereo not shown) [Compound 422, oxazol-5-ylmethyl (4-((3-(dimethylcarbamoyl)-3-azabicyclo[3.2.1]octan-8-yl)methyl)phenyl)carbamate], the “AC1.4 Human” value came out at 0.07 µM and the negative-log EC50 (pEC50) is 4.94.

In the case of `CC(C)C(=O)N1CC2CCC(C1)C2Cc1ccc(NC(=O)OCc2cnco2)cc1` (stereo not shown) [Compound 423, oxazol-5-ylmethyl (4-((3-isobutyryl-3-azabicyclo[3.2.1]octan-8-yl)methyl)phenyl)carbamate], the “AC1.4 Human” value was found to be 0.18 µM and the pEC50 is 4.81.

Take `CC(=O)N1CC2CCC(C1)C2Cc1ccc(NC(=O)OCc2cnco2)cc1` (stereo not shown) [Compound 424, oxazol-5-ylmethyl (4-((3-acetyl-3-azabicyclo[3.2.1]octan-8-yl)methyl)phenyl)carbamate]: the “AC1.4 Human” value was 0.04 µM and the negative-log EC50 (pEC50) was 5.95.

Turning to `O=C(Nc1ccc(CC2C3CCC2CN(C2COC2)C3)cc1)OCc1cnco1` (stereo not shown) [Compound 425, oxazol-5-ylmethyl (4-((3-(oxetan-3-yl)-3-azabicyclo[3.2.1]octan-8-yl)methyl)phenyl)carbamate], the “AC1.4 Human” value was found to be 0.57 µM and the negative-log EC50 (pEC50) was 4.28.

As for `O=C(Nc1ccc(CC2C3CCC2CNC3)cc1)OCc1cnco1` (stereo not shown) [Compound 426, oxazol-5-ylmethyl (4-((3-azabicyclo[3.2.1]octan-8-yl)methyl)phenyl)carbamate], the “AC1.4 Human” value amounted to 1.62 µM and the pEC50 is 4.49.

For `CCS(=O)(=O)N1CCC(c2ccc(NC(=O)OCc3cnco3)cc2)CC1` [Compound 427, oxazol-5-ylmethyl (4-(1-(ethylsulfonyl)piperidin-4-yl)phenyl)carbamate], the “AC1.4 Human” value was found to be 0.16 µM and the pEC50 was 5.58.

Consider `O=C(Nc1ccc(C2CCN(S(=O)(=O)N3CCC3)CC2)cc1)OCc1cnco1` [Compound 428, oxazol-5-ylmethyl (4-(1-(azetidin-1-ylsulfonyl)piperidin-4-yl)phenyl)carbamate], for which the “AC1.4 Human” value came to 0.07 µM and the pEC50 was 5.53.

`O=C(Nc1ccc(C2CCN(C(=O)N3CCC3)CC2)cc1)OCc1cnco1` [Compound 429, oxazol-5-ylmethyl (4-(1-(azetidine-1-carbonyl)piperidin-4-yl)phenyl)carbamate]: the “AC1.4 Human” value worked out at 0.19 µM and the pEC50 was 4.38.

Regarding `CCC(=O)N1CCC(c2ccc(NC(=O)OCc3cnco3)cc2)CC1` [Compound 430, oxazol-5-ylmethyl (4-(1-propionylpiperidin-4-yl)phenyl)carbamate], the “AC1.4 Human” value is 0.11 µM and the negative logarithm of the EC50 (pEC50) is 4.70.

Turning to `O=C(Nc1ccc(C2CCN(C(=O)C3CC3)CC2)cc1)OCc1cnco1` [Compound 431, oxazol-5-ylmethyl (4-(1-(cyclopropanecarbonyl)piperidin-4-yl)phenyl)carbamate], the “AC1.4 Human” value turned out to be 0.17 µM and the pEC50 is 4.56.

For `CN(C)S(=O)(=O)N1CCC(c2ccc(NC(=O)OCc3cnco3)cc2)CC1` [Compound 432, oxazol-5-ylmethyl (4-(1-(N,N-dimethylsulfamoyl)piperidin-4-yl)phenyl)carbamate], the “AC1.4 Human” value amounted to 0.07 µM and the pEC50 is 5.33.

On to `CN(C)S(=O)(=O)N1CC2CC(C1)C2Cc1ccc(NC(=O)OCc2cnco2)cc1` (stereo not shown) [Compound 433, oxazol-5-ylmethyl (4-((3-(N,N-dimethylsulfamoyl)-3-azabicyclo[3.1.1]heptan-6-yl)methyl)phenyl)carbamate], for which the “AC1.4 Human” value was 0.21 µM and the negative logarithm of the EC50 (pEC50) was 5.13.

As to `CS(=O)(=O)N1CC2CC(C1)C2Cc1ccc(NC(=O)OCc2cnco2)cc1` (stereo not shown) [Compound 434, oxazol-5-ylmethyl (4-((3-(methylsulfonyl)-3-azabicyclo[3.1.1]heptan-6-yl)methyl)phenyl)carbamate], the “AC1.4 Human” value amounted to 0.06 µM and the negative logarithm of the EC50 (pEC50) was 5.68.
